The record followed here is patent publication US20250230147A1, “LACTAMS AS CBL-B INHIBITORS” (Genentech, Inc., priority 2021, published 2025).

For one assay, the target named is c-Cbl (Homo sapiens (Human), UniProt P22681). Description: C-Cbl LCK Ub TR-FRET assay (c-cbl Lck HTRF). Conditions: for (fold-selectivity): C-cbl Lck HTRF IC50 relative to Cbl-b Lck HTRF IC50. The format is biochemical. As for the experimental part:
6 μL of detection mixture was added to all wells and briefly centrifuged before incubating for 20 min at room temperature. […] IC50 was generated using no LCK as the low control and DMSO as the high control.
(TR-FRET usually uses a lanthanide donor and a delayed reading to cut background.)

A further assay has as its target Cbl-b (Homo sapiens (Human), UniProt Q13191). Description: Cbl-b LCK Ub TR-FRET assay (Cbl-b Lck HTRF). The format is biochemical. As for the experimental part: Compounds were 3-fold serially diluted in DMSO in a 384-well polypropylene plate (#P-05525-BC; Labcyte) to generate a source plate with 10 concentrations of each compound, top concentration=2 mM. 80 nL of DMSO or compounds were transferred to each well of a black 384-well ProxiPlate (#6008260; PerkinElmer) using a Labcyte Echo. 1×assay buffer (50 mM HEPES pH7.0, 100 mM NaCl, 0.01% BSA, 0.01% Triton-X100, 1 mM DTT), 2×enzyme solution (16 nM Biotin-Cbl-b or 12 nM Biotin-c-Cbl in 1× assay buffer), 2×kinase mixture (120 nM His-LCK, 1 mM ATP, 10 mM MgCl2 in assay buffer) and 2.33×detection mixture (4.66×solution 1: 163 nM Anti-HA-D2 antibody (#610HADAB; PerkinElmer), 27.96 nM Streptavidin-EU (#AD0062; PerkinElmer), 1.398 mM EDTA in 1×assay buffer+4.66×solution 2: 2.796 μM UBE2D2/Methylated-HA-Ubiquitin thioester adduct (BostonBiochem) in 1×assay buffer) were prepared. 4 μL of 2× enzyme solution was added to each well containing compound, briefly centrifuged to mix, and incubated for 60 min at room temperature. 4 μL of 2× kinase mixture was added, briefly centrifuged to mix, and incubated for 90 min. at room temperature. 6 μL of detection mixture was added to all wells and briefly centrifuged before incubating for 20 min at room temperature. Plates were read for TR-FRET using an Envision at excitation 340 nm, emission at 615 and 665 nm, 4 flashes per well. IC50 was generated using no LCK as the low control and DMSO as the high control.
Cbl-b Lck HTRF data in Table 7 is measured according to Example 76 herein; C-cbl Lck HTRF data is measured according to Example 76 herein.

Sequence of c-Cbl (P22681 47-435): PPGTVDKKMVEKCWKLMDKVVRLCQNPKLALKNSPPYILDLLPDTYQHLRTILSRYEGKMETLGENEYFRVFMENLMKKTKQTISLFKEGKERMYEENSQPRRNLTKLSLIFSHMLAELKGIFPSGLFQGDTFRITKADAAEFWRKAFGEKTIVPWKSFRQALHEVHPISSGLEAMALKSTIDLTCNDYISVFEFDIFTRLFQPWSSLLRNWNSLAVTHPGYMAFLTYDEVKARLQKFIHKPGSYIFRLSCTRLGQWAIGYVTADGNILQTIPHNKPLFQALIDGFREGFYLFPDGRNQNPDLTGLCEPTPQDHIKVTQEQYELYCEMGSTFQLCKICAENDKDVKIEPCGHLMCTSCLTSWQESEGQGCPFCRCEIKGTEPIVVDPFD
Sequence of Cbl-b (Q13191 40-426): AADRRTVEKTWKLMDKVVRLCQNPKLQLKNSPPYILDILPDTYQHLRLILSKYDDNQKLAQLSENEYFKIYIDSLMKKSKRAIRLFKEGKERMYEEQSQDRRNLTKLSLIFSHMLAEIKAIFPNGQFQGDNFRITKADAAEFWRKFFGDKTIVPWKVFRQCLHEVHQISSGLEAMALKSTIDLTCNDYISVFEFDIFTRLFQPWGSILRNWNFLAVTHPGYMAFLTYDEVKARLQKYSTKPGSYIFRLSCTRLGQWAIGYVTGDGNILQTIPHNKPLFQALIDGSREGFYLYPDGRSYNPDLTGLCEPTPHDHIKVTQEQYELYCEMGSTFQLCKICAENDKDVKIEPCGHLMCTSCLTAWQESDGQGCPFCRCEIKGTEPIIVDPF

The term IC50 denotes the concentration at which inhibition is half-maximal. Low readings indicate greater potency in that assay, high ones weaker potency in that assay. `Cn1cnnc1[C@H](F)C1(c2cccc(N3Cc4c(cc(CN5CCC6(CC6)C5)cc4C(F)(F)F)C3=O)c2)CC1` [Compound 27, (R)-6-(5-azaspiro[2.4]heptan-5-ylmethyl)-2-(3-(1-(fluoro(4-methyl-4H-1,2,4-triazol-3-yl)methyl)cyclopropyl)phenyl)-4-(trifluoromethyl)isoindolin-1-one]: the 50% inhibitory concentration (IC50) at c-Cbl stood at 61 nM; against Cbl-b, 39 nM.

For the compound `Cn1cnnc1[C@@H](F)C1(c2cccc(N3Cc4c(cc(CN5CCC6(CC6)C5)cc4C(F)(F)F)C3=O)c2)CC1` [Compound 28, (S)-6-(5-azaspiro[2.4]heptan-5-ylmethyl)-2-(3-(1-(fluoro(4-methyl-4H-1,2,4-triazol-3-yl)methyl)cyclopropyl)phenyl)-4-(trifluoromethyl)isoindolin-1-one], the values for the IC50 at c-Cbl and against Cbl-b were 180 nM and 80 nM, respectively. For the same compound, the “(fold-selectivity)” value on c-Cbl was found to be 2.2x.

On to `Cn1cnnc1[C@H](F)[C@](C)(F)c1cccc(N2Cc3c(cc(CN4CC(C)(F)C4)cc3C(F)(F)F)C2=O)c1` [Compound 31, 2-(3-((1 S,2R)-1,2-difluoro-1-(4-methyl-4H-1,2,4-triazol-3-yl)propan-2-yl)phenyl)-6-((3-fluoro-3-methylazetidin-1-yl)methyl)-4-(trifluoromethyl)isoindolin-1-one], for which, on c-Cbl, 130 nM corresponded to half-maximal inhibition (IC50) and the “(fold-selectivity)” value stood at 1.4x. At Cbl-b, this compound returned an IC50 of 88 nM.

Turning to `Cn1cnnc1[C@@H](F)[C@@](C)(F)c1cccc(N2Cc3c(cc(CN4CC(C)(F)C4)cc3C(F)(F)F)C2=O)c1` [Compound 32, 2-(3-((1 R,2S)-1,2-difluoro-1-(4-methyl-4H-1,2,4-triazol-3-yl)propan-2-yl)phenyl)-6-((3-fluoro-3-methylazetidin-1-yl)methyl)-4-(trifluoromethyl)isoindolin-1-one], on c-Cbl, half-maximal inhibition (IC50) was put at 11000 nM and the “(fold-selectivity)” value is reported as 2.5x. In addition, on Cbl-b, the IC50 amounted to 4500 nM.

Regarding `Cn1cnnc1[C@H](F)[C@@](C)(F)c1cccc(N2Cc3c(cc(CN4CC(C)(F)C4)cc3C(F)(F)F)C2=O)c1` [Compound 33, 2-(3-((1 S,2S)-1,2-difluoro-1-(4-methyl-4H-1,2,4-triazol-3-yl)propan-2-yl)phenyl)-6-((3-fluoro-3-methylazetidin-1-yl)methyl)-4-(trifluoromethyl)isoindolin-1-one], on c-Cbl, the IC50 stood at 1900 nM and the “(fold-selectivity)” value was determined as 2.1x. Also, it took 890 nM to reach half-maximal inhibition on Cbl-b (IC50).

For `Cn1cnnc1[C@@H](F)[C@](C)(F)c1cccc(N2Cc3c(cc(CN4CC(C)(F)C4)cc3C(F)(F)F)C2=O)c1` [Compound 34], on c-Cbl, 760 nM corresponded to half-maximal inhibition (IC50) and the “(fold-selectivity)” value is recorded as 2.0x. The IC50 on Cbl-b came to 380 nM.

As for `CO[C@@H]1CCN(Cc2cc3c(c(C(F)(F)F)c2)CN(c2cccc(C4([C@@H](F)c5nncn5C)COC4)c2)C3=O)C1` [Compound 47, 2-(3-(3-((R)-fluoro(4-methyl-4H-1,2,4-triazol-3-yl)methyl)oxetan-3-yl)phenyl)-6-(((R)-3-methoxypyrrolidin-1-yl)methyl)-4-(trifluoromethyl)isoindolin-1-one], on c-Cbl, it took 180 nM to reach half-maximal inhibition (IC50) and the “(fold-selectivity)” value is 1.8x. Further, inhibition on Cbl-b was half-maximal at 100 nM (IC50).

Consider `CO[C@@H]1CCN(Cc2cc3c(c(C(F)(F)F)c2)CN(c2cccc(C4([C@H](F)c5nncn5C)COC4)c2)C3=O)C1` [Compound 48, 2-(3-(3-((S)-fluoro(4-methyl-4H-1,2,4-triazol-3-yl)methyl)oxetan-3-yl)phenyl)-6-(((R)-3-methoxypyrrolidin-1-yl)methyl)-4-(trifluoromethyl)isoindolin-1-one], for which, on c-Cbl, the IC50 stood at 780 nM and the “(fold-selectivity)” value stood at 2.4x. Further, the IC50 on Cbl-b came out at 320 nM.

In the case of `Cn1cnnc1C(F)(F)C1(c2cccc(N3Cc4c(cccc4C(F)(F)F)C3=O)c2)CC1` [Compound 49, 2-(3-(1-(difluoro(4-methyl-4H-1,2,4-triazol-3-yl)methyl)-cyclopropyl)phenyl)-4-(trifluoromethyl)isoindolin-1-one], on c-Cbl, it took 2800 nM to reach half-maximal inhibition (IC50) and the “(fold-selectivity)” value was 2.0x. Besides, the IC50 at Cbl-b was 1400 nM.
